Test results: US5552405A, “Substituted pyrrolidine derivatives as HIV protease inhibitors” (Bio-Mega/Boehringer Ingelheim Research, Inc., priority 1995, dated 1996)

What was measured:
[1] = tested on: HIV (H9/HTLV-IIIB) in HTLV-I transformed C8166 cells; experiment: plaque assay, inhibition of HIV (H9/HTLV-IIIB) syncytia formation in C8166 cells; assay type: cell-based; conditions: Human immunodeficiency virus 1, fifty times TCID50, 37°, 72 h, read-out: EC50, concentration of the test compound which causes a 50% inhibition of syncytia formation
Source text: Typical of such procedures are those described by S. Harada and N. Yamamoto, Jpn. J. Cancer Res. (Gann), 76, 432 (1985), and S. Harada et al., Science, 229, 563 (1985). An assay based on the latter procedures is described in the examples hereinafter.
The following protocol, used for screening antiviral effects of the compounds of formula 1, is adapted from a plaque assay utilizing HTLV-I transformed cells, previously reported by Harada et al., supra. HTLV-I transformed cells are used because of the rapidity with which HIV will replicate in the cells.
1. The test compound is dissolved in dimethylsulfoxide to a concentration of 5 mg/mL. The resultant solution can be stored at 4° until use.
2. The resultant solution is diluted in RPMI 1640 (Gibco Laboratories, St. Lawrence, Mass., USA) to four times (4×) the final concentration which is to be tested. Once diluted in RPMI 1640, the solution is used in the cell culture assay within 4 h.
3. The 4×solution (50 μL) is added to triplicate wells of a 96 well flat bottomed microtiter plate. RPMI (50 μL) also is added to control wells.
4. C8166 cells (5×10^4) in […] of HEPES-buffered RPMI 1640 (pH=7.2), 10% heat inactivated fetal calf serum (FCS), […] gentamicin (complete media) are added to all wells.
5. Fifty times TCID50 of H9/HTLV-IIIB stock (stored in liquid nitrogen as cell culture supernatant in 50% FCS) in 100 μL of complete media is added to all wells. Infectious titer of virus stocks are as previously determined by end point dilution on C8166 cells. Titer of stocks are stable for 6-12 months when stored at -193°.
6. Microtiter plates are then placed on level shelves of a 37°, 5% CO2 humidified incubator for 72 h.
7. Plates are then removed and centers of syncytia are counted in each well by low power phase contrast light microscopy. […] Control wells should have between 25 and 75 centers of syncytia per well.
8. Percent inhibition of syncytia formation is calculated by the formula: [formula]
The concentration of the test compound which causes a 50% inhibition of syncytia formation, i.e. the EC50, is determined by using the technique of serial dilution of the working solution at step 3 and graphically plotting the observed percent inhibition of syncytia formation against the various concentrations of the test compound.

HIV protease = target: T1, HIV protease (Human immunodeficiency virus type 1 group M subtype B, UniProt P04585); experiment: Recombinant HIV Protease HPLC Assay; assay type: biochemical; conditions: recombinant HIV protease expressed in E. coli; substrate VSFNFPQITL-NH2; pH 5.5; 37°, 30 min; read-out: IC50, concentration of the test compound which causes a 50% inhibition of the HIV-protease
T1 construct: HIV protease was expressed in E. coli; made in house; host or cells: E. coli
Source text: The procedure is based on the capacity of the test compound to inhibit enzymatic cleavage by HIV protease of a decapeptide (the substratel having an amino acid sequence which includes a known HIV protease cleavage site of a HIV polyprotein; see H. G. Krausslich et al., Proc. Natl. Acad. Sci. U.S.A., 86, 807 (1989). Details of this assay together with the results obtained for exemplified compounds of formula 1 are described in the examples hereinafter.
Enzyme: HIV protease was expressed in E. coli {construct pBRT1 prt^+, see W. G. Farmerie et al., Science, 236, 305 (1987)}, according to the following protocol: Unless stated otherwise, all solutions are aqueous solutions.
E. coli cells containing the pBRT1 prt^+ plasmid were used to inoculate a seed culture media composed of Luria-Bertani Broth containing 100 μg/mL of ampicillin. Flasks were incubated at 37° under agitation for 17 h. Production flasks containing sterile M9 broth, supplemented with 100 μg/mL of ampicillin, were inoculated at a level of 1% (v/v) using the seed culture described above. Total volume in each production flask was 500 mL in a 2 L Erlenmeyer flask. Flasks were incubated at 37° under agitation until a cell concentration corresponding to an optical density (λ=540 μm) of 0.6 was reached (no dilution). This time span was routinely 3-4 h. Flasks were then supplemented with 5 mM isopropylthiogalactoside (IPTG, Research Organics, Cleveland, Ohio, USA) and incubation was continued until the cell concentration reached an optical density of 0.2 at 16-fold dilution. Flasks were then supplemented with 1 mM phenylmethylsulfonyl fluoride (PMSF) and rapidly chilled to 4°. The bacterial cells were recovered by centrifugation at 4°. The wet pellet was stored at -70°.
All steps below were perfomed at 4° unless otherwise indicated. Thawed cells were mixed with buffer A {50 mM tris(hydroxymethyl)aminoethane HCl (Tris-HCl, pH 7.4); 0.6 mM ethylenediaminetetraacetic acid (EDTA); 0.375M NaCl, 0.2% Nonidet P-40® (BDH Chemicals Ltd., Poole, UK); 1 mM PMSF}, at a ratio of one part cells to nine parts buffer A. Diatomaceous earth (Celite 545® John Manville, Lompoc, Calif. U.S.A.) was added at a ratio of two parts to one part of wet cell weight. The resulting slurry was homogenized at high speed (ca. 20,000 rpm) on a Waring® industrial blender for 8×15 sec. pulses. Cell debris/Celite® was collected by centrifugation and the resulting pellet was extracted with 4.5 parts of buffer A to one part wet solids using the homogenization procedure described above. Supernatants from both homogenization steps were combined and soluble protein was precipitated by the addition of solid (NH4)2 SO4 to yield a final concentration of 75% saturation. This mixture was agitated for 60 min and the precipitate was recovered by centrifugation. The resulting pellet was suspended in buffer B {50 mM Tris-HCl, pH 8; 30 mM NaCl; 1 mM DL-dithiothreitol (DTT); 1 mM EDTA; mM PMSF; 10% glycerol}, and dialyzed for 18 h against the same buffer.
An aliquot of the dialyzed extract containing 150 mg of the protein was loaded onto a Sephadex A25® anion exchange column (Pharmacia, Uppsala, Sweden) with bed dimensions of 70 cm length and 2.5 cm diameter. The sample was eluted isocratically with buffer B at a linear flow rate of 10 cm/h. Fractions containing HIV protease activity (see below for assay description) were combined, and soluble protein was precipitated by the addition of saturated aqueous (NH4)2 SO4 to yield a total (NH4)2 SO4 concentration of 85% saturation. Precipitated protein was removed by centrifugation and the resulting pellet was dissolved in buffer C {50 mM 2-(4-morpholino)ethanesulfonic acid (MES), pH 5.5; 150 mM NaCl; 1 mM DTT; 1 mM EDTA; 10% glycerol}. This preparation was dialyzed for 18 h against buffer C, and then frozen at -70°. All crude extracts were purified by chromatography in aliquots containing 150 mg of protein in the same manner as described above. […]

Compound | EC50 [1] | IC50 (HIV protease)
Cc1cc(O[C@@H]2C[C@@H](C(=O)NC(C)(C)C)N(C[C@@H](O)[C@H](Cc3ccccc3)NC(=O)[C@@H](NC(=O)c3ccc4ccccc4n3)C(C)C)C2)nc(C)n1 [Table I Entry 12, N-tert-butyl-1-{2(R)-hydroxy-4-phenyl-3(S)-{{N-(2-quinolinylcarbonyl)valyl}amino}butyl}-4(R)-{(2,6-dimethyl-4-pyrimidinyl)oxy}pyrrolidine-2(S)-carboxamide] | 390 nM | 9.4 nM
CC(C)[C@H](NC(=O)c1ccc2ccccc2n1)C(=O)N[C@@H](Cc1ccccc1)[C@H](O)CN1C[C@H](SCc2cccnc2)C[C@H]1C(=O)NC(C)(C)C [Table I Entry 11, N-tert-butyl-1-{2(R)-hydroxy-4-phenyl-3(S)-{{N-(2-quinolinylcarbonyl)valyl}amino}butyl}-4(R)-{(3-pyridinylmethyl)thio}pyrrolidine-2(S)-carboxamide] | 480 nM | 12 nM
CC(C)[C@H](NC(=O)c1ccc2ccccc2n1)C(=O)N[C@@H](Cc1ccccc1)[C@H](O)CN1C[C@H](Sc2ncccn2)C[C@H]1C(=O)NC(C)(C)C [Table I Entry 10, N-tert-butyl-1-{2(R)-hydroxy-4-phenyl-3(S)-{{N-(2-quinolinylcarbonyl)valyl}amino}butyl}-4(R)-(2-pyrimidinylthio)pyrrolidine-2(S)-carboxamide] | 250 nM | 
CC(C)(C)NC(=O)[C@@H]1C[C@H](Cc2ccccc2)CN1C[C@@H](O)[C@H](Cc1ccccc1)NC(=O)[C@H](CC(N)=O)NC(=O)OCc1ccccc1 [Table I Entry 9, 4(S)-Benzyl-1-{3(S)-{{N-(benzyloxycarbonyl)asparaginyl}amino}-2(R)-hydroxy-4-phenylbutyl}-N-tert-butylpyrrolidine-2(S)-carboxamide] | 4000 nM | 780 nM
Cc1cccc(C)c1OCC(=O)N[C@@H](Cc1ccccc1)[C@H](O)CN1C[C@H](SCc2cccnc2)C[C@H]1C(=O)NC(C)(C)C [Entry 14] |  | 43 nM
Cc1cccc(C)c1OCC(=O)N[C@@H](Cc1ccccc1)[C@H](O)CN1C[C@H](Sc2ncccn2)C[C@H]1C(=O)NC(C)(C)C [Entry 13] |  | 4.6 nM
CC(C)(C)NC(=O)[C@@H]1C[C@@H](Cc2ccccc2)CN1C[C@@H](O)[C@H](Cc1ccccc1)NC(=O)[C@H](CC(N)=O)NC(=O)OCc1ccccc1 [Table I Entry 8, 4(R)-Benzyl-1-{3(S)-{{N-(benzyloxycarbonyl)asparaginyl}amino}-2(R)-hydroxy-4-phenylbutyl}-N-tert-butylpyrrolidine-2(S)-carboxamide] | 700 nM | 48 nM
CC(C)CO[C@@H]1C[C@@H](C(=O)NC(C)(C)C)N(C[C@@H](O)[C@H](Cc2ccccc2)NC(=O)[C@@H](NC(=O)OCc2ccccc2)C(C)C)C1 [Table I Entry 6, 1-{3(S)-{{N-(benzyloxycarbonyl)valyl}amino}-2(R)-hydroxy-4-phenylbutyl}-N-tert-butyl-4(R)-(2-methylpropyloxy)pyrrolidine-2(S)-carboxamide] | 3000 nM | 180 nM
CC(C)[C@H](NC(=O)OCc1ccccc1)C(=O)N[C@@H](Cc1ccccc1)[C@H](O)CN1C[C@H](OCc2ccccc2)C[C@H]1C(=O)NC1CC1 [Table I Entry 7, 4(R)-Benzyloxy-1-{3(S)-{{N-(benzyloxycarbonyl)valyl}amino}-2(R)-hydroxy-4-phenylbutyl}-N-cyclopropylpyrrolidine-2(S)-carboxamide] | 900 nM | 100 nM
CC(C)(C)NC(=O)[C@@H]1C[C@H](OCc2ccccc2)CN1C[C@@H](O)[C@H](Cc1ccccc1)NC(=O)[C@H](CC(N)=O)NC(=O)OCc1ccccc1 [Table I Entry 4, 4(S)-Benzyloxy-1-{3(S)-{{N-(benzyloxycarbonyl)asparaginyl}amino}-2(R)-hydroxy-4-phenylbutyl}-N-tert-butylpyrrolidine-2(S)-carboxamide] |  | 300 nM
Cc1cccc(C)c1OCC(=O)N[C@@H](Cc1ccccc1)[C@H](O)CN1C[C@H](Sc2ncccn2)C[C@H]1C(=O)NC(C)(C)C [Table I Entry 13, N-tert-butyl-1-{3(S)-{{(2,6-dimethylphenoxy)acetyl}amino}-2(R)-hydroxy-4-phenylbutyl}-4(R)-(2-pyrimidinylthio)pyrrolidine-2(S)-carboxamide] | 250 nM | 
CC(C)CO[C@H]1C[C@@H](C(=O)NC(C)(C)C)N(C[C@@H](O)[C@H](Cc2ccccc2)NC(=O)[C@@H](NC(=O)OCc2ccccc2)C(C)C)C1 [Table I Entry 5, 1-{3(S)-{{N-(benzyloxycarbonyl)valyl}amino}-2(R)-hydroxy-4-phenylbutyl}-N-tert-butyl-4(S)-(2-methylpropyloxy)pyrrolidine-2(S)-carboxamide] |  | 745 nM
CC(C)[C@H](NC(=O)c1ccc2ccccc2n1)C(=O)N[C@@H](Cc1ccccc1)[C@H](O)CN1C[C@H](Sc2ncccn2)C[C@H]1C(=O)NC(C)(C)C [Entry 10] |  | 4.7 nM
CC(C)(C)NC(=O)[C@@H]1C[C@@H](OCc2ccccc2)CN1C[C@@H](O)[C@H](Cc1ccccc1)NC(=O)[C@H](CC(N)=O)NC(=O)OCc1ccccc1 [Table I Entry 3, 4(R)-Benzyloxy-1-{3(S)-{{N-(benzyloxycarbonyl)asparaginyl}amino}-2(R)-hydroxy-4-phenylbutyl}-N-tert-butylpyrrolidine-2(S)-carboxamide] | 600 nM | 39 nM
CC(C)[C@H](NC(=O)OCc1ccccc1)C(=O)N[C@@H](Cc1ccccc1)[C@H](O)CN1C[C@H](OCc2ccccc2)C[C@H]1C(=O)NC(C)(C)C [Entry 2] |  | 16 nM
